Test results taken from PMC9820411, “Late-Stage Functionalization through Click Chemistry Provides GLUT5-Targeting Glycoconjugate as a Potential PET Imaging Probe” (International Journal of Molecular Sciences, 2022).

Molecular target: T1, GLUT5 (Homo sapiens, UniProt P22732)
T1 construct: gene SLC2A5
T1 sequence (P22732 1-501): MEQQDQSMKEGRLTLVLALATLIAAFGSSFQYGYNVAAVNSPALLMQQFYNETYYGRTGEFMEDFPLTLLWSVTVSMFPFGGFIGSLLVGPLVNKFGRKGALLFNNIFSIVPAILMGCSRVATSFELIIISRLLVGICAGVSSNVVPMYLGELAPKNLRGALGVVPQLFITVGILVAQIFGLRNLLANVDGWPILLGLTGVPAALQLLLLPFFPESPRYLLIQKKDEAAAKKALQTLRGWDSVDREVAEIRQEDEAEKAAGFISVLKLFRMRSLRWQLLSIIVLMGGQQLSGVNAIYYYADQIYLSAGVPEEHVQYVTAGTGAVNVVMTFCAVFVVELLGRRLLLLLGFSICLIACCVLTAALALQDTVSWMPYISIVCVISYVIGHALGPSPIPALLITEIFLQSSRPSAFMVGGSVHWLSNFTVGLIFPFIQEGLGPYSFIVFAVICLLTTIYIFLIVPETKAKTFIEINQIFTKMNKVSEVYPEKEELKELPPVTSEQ
Experiment: competition with ManCou-F uptake in MCF7 cells
Format: cell-based

- IC50: ~28 mM
SMILES: OC[C@H]1OC(O)(CO)[C@@H](O)[C@@H]1O (stereo partly shown) [fructose]
